# Calls of active or inactive are those of the source. The calls are words filed in the database; no cut-off is given here.
# What was measured:
# [1] = molecular target: Prostaglandin G/H synthase 2 (Homo sapiens) (UniProt P35354); test: Activation of COX2 (unknown origin) at 1 uM relative to control
# [2] = molecular target: Sodium-dependent serotonin transporter (Homo sapiens) (UniProt P31645); test: Inhibition of 5-HTT (unknown origin) at 1 uM relative to control
# [3] = molecular target: Sodium-dependent noradrenaline transporter (Homo sapiens) (UniProt P23975); test: Inhibition of NET (unknown origin) at 1 uM relative to control
# [4] = molecular target: Histamine H1 receptor (Homo sapiens) (UniProt P35367); test: Activation of Histamine H1 receptor (unknown origin) at 1 uM relative to control
# [5] = molecular target: Adenosine receptor A2a (Homo sapiens) (UniProt P29274); test: Inhibition of adenosine A2A receptor (unknown origin) at 1 uM relative to control
# [6] = Drug distribution in C57BL/6 mouse plasma at 30 mg/kg, ip measured after 2 hrs by LC-MS/MS analysis; assay type: ADME, organism-based
# Mus musculus [7] = test: Anti-colitis activity against DSS-induced ulcerative colitis C57BL/6 mouse model assessed as reduction in DAI score at 15 to 30 mg/kg, ip administered daily and measured upto 10 days; assay type: functional, organism-based; conditions: dose 15-30 mg/kg, time <= 10.0 day
# [8] = Half life in male C57BL/6 mouse at 30 mg/kg, ip measured upto 1440 mins by LC-MS/MS analysis; assay type: ADME, organism-based; conditions: in vivo
# [9] = molecular target: Voltage-gated inwardly rectifying potassium channel KCNH2 (Homo sapiens, UniProt Q12809); test: Inhibition of human ERG expressed in HEK293 cells; assay type: toxicity, cell-based
# [10] = molecular target: NACHT, LRR and PYD domains-containing protein 3 (Mus musculus) (UniProt Q8R4B8); test: Inhibition of NLRP3 inflammasome activation in LPS/Nigericin induced mouse BMDM cells assessed as suppression of IL-1beta secretion preincubated with LPS for 3 hrs followed by compound addition for 40 mins and further stimulated with nigericin for 40 mins by Western blot analysis; assay type: cell-based; conditions: dose 0.25-1 µM, time 80.0 min
# Mus musculus [11] = test: Anti-colitis activity against DSS-induced ulcerative colitis C57BL/6 mouse model assessed as reduction in colon length shortening at 15 to 30 mg/kg, ip administered daily and measured upto 10 days; assay type: functional, organism-based; conditions: dose 15-30 mg/kg, time <= 10.0 day
# Mus musculus [12] = test: Anti-colitis activity against DSS-induced ulcerative colitis C57BL/6 mouse model assessed as reduction in IL-1 beta level at 15 to 30 mg/kg, ip by ELISA method; assay type: functional, organism-based; conditions: dose 15-30 mg/kg
# [13] = molecular target: Alpha-1A adrenergic receptor (Homo sapiens) (UniProt P35348); test: Inhibition of alpha 1A adrenergic receptor (unknown origin) at 1 uM relative to control
# THP-1 [14] = test: Cytotoxicity against human THP-1 cells at 4 uM measured after 24 hrs by CCK-8 method; assay type: functional, cell-based
# [15] = Metabolic stability in human liver microsomes assessed as half life preincubated for 5 mins followed by NADPH addition and measured upto 60 mins by LC-MS/MS analysis; assay type: ADME, Microsome; conditions: time < 65 min
# [16] = Cytotoxicity against human PBMC cells at 1.25 uM measured after 24 hrs by CCK-8 method; assay type: toxicity, cell-based
# THP-1 [17] = test: Binding affinity to NLRP3deltaLRR mutant in PMA- differentiated human THP-1 cells assessed as increase in thermal stability of protein at 1 uM pretreated with LPS for 3 hrs followed by compound addition at 45 to 63 degC for 2 mins by CETSA analysis; assay type: cell-based
# Mus musculus [18] = test: Anti-colitis activity against DSS-induced ulcerative colitis C57BL/6 mouse model assessed as alleviation of reduced crypt count at 15 to 30 mg/kg, ip administered daily and measured after 10 days by H and E staining based analysis; assay type: functional, organism-based; conditions: dose 15-30 mg/kg, time 10.0 day
# [19] = AUC (0 to t) in male C57BL/6 mouse at 30 mg/kg, ip measured upto 1440 mins by LC-MS/MS analysis; assay type: ADME, organism-based; conditions: in vivo
# [20] = Drug distribution in C57BL/6 mouse plasma at 30 mg/kg, ip measured after 8 hrs by LC-MS/MS analysis; assay type: ADME, organism-based
# Homo sapiens = species on record: Homo sapiens; test: Inhibition of GlyRalpha1beta (unknown origin) at 1 uM relative to control
# [21] = Metabolic stability in mouse liver microsomes assessed as half life preincubated for 5 mins followed by NADPH addition and measured upto 60 mins by LC-MS/MS analysis; assay type: ADME, Microsome; conditions: time < 65 min
# [22] = molecular target: NACHT, LRR and PYD domains-containing protein 3 (Mus musculus) (UniProt Q8R4B8); test: Inhibition of NLRP3 inflammasome activation in LPS/Nigericin induced mouse BMDM cells assessed as effect on ASC expression at 0.25 to 1 uM preincubated with LPS for 3 hrs followed by compound addition for 40 mins and further stimulated with nigericin for 40 mins by Western blot analysis; assay type: cell-based; conditions: dose 0.25-1 µM, time 80.0 min
# [23] = Drug distribution in C57BL/6 mouse colon at 30 mg/kg, ip measured after 24 hrs by LC-MS/MS analysis; assay type: ADME, organism-based; conditions: read-out: Drug uptake
# HEK293T = test: Inhibition of HA-NLRP3/FLAG tagged NEK7 interaction (unknown origin) transfected in HEK293T cells at 1 uM incubated for 24 hrs by Western blot analysis; assay type: cell-based; conditions: Homo sapiens
# [24] = molecular target: Glucocorticoid receptor (Homo sapiens) (UniProt P04150); test: Activation of GR receptor (unknown origin) at 1 uM relative to control
# Cytochrome P450 1A2 = Cytochrome P450 1A2 (Homo sapiens, UniProt P05177); test: Inhibition of CYP1A2 in human liver microsomes using phenacetin as substrate preincubated for 5 mins followed by NADPH addition and measured after 30 to 60 mins by LC-MS/MS analysis; assay type: ADME, Microsome
# [25] = molecular target: Androgen receptor (Homo sapiens) (UniProt P10275); test: Inhibition of Androgen receptor (unknown origin) at 1 uM relative to control
# [26] = molecular target: NACHT, LRR and PYD domains-containing protein 3 (Mus musculus) (UniProt Q8R4B8); test: Inhibition of NLRP3 inflammasome activation in LPS/Nigericin induced mouse BMDM cells assessed as suppression of caspase-1 secretion preincubated with LPS for 3 hrs followed by compound addition for 40 mins and further stimulated with nigericin for 40 mins by Western blot analysis; assay type: cell-based; conditions: dose 0.25-1 µM, time 80.0 min
# BMDM = test: Inhibition of pyroptosis in LPS/nigericin induced […] cells assessed as reduction in red fluorescence production preincubated with LPS for 3 hrs followed by compound addition for 40 mins and further stimulated with nigericin for 40 mins by PI staining based inverted microscopy based analysis; assay type: functional, cell-based; conditions: dose 0.25-1 µM, time 80.0 min
# [27] = Drug distribution in C57BL/6 mouse plasma at 30 mg/kg, ip measured after 24 hrs by LC-MS/MS analysis; assay type: ADME, organism-based
# [28] = molecular target: P2X purinoceptor 3 (Homo sapiens) (UniProt P56373); test: Activation of P2X3 (unknown origin) at 1 uM relative to control
# [29] = molecular target: 5-hydroxytryptamine receptor 7 (Homo sapiens) (UniProt P34969); test: Activation of 5-HT7 receptor (unknown origin) at 1 uM relative to control
# [30] = molecular target: Sodium-dependent noradrenaline transporter (Homo sapiens) (UniProt P23975); test: Activation of NET (unknown origin) at 1 uM relative to control
# [31] = molecular target: Mu-type opioid receptor (Homo sapiens) (UniProt P35372); test: Activation of mu opioid receptor (unknown origin) at 1 uM relative to control
# Chain of Mu-type opioid receptor (Homo sapiens) (P35372 whole entry): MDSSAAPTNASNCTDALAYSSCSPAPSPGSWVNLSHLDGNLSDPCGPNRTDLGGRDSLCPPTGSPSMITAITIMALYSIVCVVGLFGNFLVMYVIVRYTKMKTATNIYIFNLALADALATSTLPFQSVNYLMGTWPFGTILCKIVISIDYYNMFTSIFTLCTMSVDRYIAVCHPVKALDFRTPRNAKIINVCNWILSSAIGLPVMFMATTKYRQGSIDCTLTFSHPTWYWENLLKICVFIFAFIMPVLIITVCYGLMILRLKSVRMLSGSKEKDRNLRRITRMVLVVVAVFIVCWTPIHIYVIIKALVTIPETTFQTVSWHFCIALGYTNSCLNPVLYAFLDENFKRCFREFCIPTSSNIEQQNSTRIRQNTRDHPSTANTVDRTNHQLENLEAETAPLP
# Chain of NACHT, LRR and PYD domains-containing protein 3 (Mus musculus) (Q8R4B8 whole entry, the tested form may be a part): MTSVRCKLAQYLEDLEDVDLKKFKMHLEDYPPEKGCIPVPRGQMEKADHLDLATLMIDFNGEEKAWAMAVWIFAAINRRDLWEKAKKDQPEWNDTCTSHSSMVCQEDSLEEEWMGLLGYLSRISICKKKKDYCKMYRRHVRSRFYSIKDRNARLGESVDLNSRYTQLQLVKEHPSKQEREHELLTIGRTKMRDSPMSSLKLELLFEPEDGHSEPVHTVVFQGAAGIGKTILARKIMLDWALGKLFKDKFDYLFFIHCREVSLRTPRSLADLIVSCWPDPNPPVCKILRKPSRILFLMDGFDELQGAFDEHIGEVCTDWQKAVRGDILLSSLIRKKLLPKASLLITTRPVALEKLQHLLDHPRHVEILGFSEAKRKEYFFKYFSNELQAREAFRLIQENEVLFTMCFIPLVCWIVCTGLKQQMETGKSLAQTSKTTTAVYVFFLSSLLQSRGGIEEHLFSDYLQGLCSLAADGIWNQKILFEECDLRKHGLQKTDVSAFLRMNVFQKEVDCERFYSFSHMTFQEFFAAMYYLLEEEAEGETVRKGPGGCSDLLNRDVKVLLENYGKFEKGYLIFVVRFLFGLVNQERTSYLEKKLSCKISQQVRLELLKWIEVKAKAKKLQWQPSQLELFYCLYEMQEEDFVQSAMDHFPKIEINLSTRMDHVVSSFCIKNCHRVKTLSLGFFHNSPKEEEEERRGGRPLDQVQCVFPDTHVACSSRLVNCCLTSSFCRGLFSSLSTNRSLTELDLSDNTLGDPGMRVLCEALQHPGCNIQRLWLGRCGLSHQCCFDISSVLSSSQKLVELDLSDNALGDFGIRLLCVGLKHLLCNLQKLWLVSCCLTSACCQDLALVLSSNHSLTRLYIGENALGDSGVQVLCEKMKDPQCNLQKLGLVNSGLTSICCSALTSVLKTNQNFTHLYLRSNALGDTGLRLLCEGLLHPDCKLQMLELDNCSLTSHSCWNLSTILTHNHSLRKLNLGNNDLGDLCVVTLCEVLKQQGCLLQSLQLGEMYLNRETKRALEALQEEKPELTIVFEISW
# Chain of Sodium-dependent noradrenaline transporter (Homo sapiens) (P23975 whole entry): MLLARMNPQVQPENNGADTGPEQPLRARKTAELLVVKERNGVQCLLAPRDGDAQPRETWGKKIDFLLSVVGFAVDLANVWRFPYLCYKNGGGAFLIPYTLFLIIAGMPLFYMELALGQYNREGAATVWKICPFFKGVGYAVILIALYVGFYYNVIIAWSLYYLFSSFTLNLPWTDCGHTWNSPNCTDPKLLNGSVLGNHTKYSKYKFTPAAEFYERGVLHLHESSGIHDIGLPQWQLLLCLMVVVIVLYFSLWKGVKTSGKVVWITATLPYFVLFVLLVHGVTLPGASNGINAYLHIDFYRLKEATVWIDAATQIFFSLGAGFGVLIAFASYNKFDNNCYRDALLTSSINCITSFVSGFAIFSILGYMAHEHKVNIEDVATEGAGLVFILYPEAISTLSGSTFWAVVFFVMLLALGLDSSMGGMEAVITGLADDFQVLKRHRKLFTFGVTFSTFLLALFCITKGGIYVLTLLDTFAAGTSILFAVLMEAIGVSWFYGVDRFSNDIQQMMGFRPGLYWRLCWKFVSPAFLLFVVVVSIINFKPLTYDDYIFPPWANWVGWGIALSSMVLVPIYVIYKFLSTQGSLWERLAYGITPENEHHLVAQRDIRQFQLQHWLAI
# Chain of Prostaglandin G/H synthase 2 (Homo sapiens) (P35354 whole entry): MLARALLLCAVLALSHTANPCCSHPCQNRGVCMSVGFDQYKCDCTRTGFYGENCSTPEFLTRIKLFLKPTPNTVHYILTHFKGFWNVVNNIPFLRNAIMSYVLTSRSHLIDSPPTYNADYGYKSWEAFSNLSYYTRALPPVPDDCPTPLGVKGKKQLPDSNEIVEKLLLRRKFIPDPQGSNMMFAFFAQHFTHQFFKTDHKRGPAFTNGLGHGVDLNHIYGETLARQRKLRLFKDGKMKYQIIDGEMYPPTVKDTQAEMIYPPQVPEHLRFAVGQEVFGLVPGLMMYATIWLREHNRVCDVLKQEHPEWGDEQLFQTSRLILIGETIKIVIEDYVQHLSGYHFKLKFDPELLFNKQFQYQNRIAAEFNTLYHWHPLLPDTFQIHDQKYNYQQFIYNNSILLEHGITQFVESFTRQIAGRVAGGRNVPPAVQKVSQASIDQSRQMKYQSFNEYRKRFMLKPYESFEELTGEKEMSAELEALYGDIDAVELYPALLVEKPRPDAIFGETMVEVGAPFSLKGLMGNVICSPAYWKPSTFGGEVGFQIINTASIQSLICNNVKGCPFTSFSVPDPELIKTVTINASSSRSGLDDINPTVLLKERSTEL
# Chain of Cytochrome P450 1A2 (P05177 whole entry): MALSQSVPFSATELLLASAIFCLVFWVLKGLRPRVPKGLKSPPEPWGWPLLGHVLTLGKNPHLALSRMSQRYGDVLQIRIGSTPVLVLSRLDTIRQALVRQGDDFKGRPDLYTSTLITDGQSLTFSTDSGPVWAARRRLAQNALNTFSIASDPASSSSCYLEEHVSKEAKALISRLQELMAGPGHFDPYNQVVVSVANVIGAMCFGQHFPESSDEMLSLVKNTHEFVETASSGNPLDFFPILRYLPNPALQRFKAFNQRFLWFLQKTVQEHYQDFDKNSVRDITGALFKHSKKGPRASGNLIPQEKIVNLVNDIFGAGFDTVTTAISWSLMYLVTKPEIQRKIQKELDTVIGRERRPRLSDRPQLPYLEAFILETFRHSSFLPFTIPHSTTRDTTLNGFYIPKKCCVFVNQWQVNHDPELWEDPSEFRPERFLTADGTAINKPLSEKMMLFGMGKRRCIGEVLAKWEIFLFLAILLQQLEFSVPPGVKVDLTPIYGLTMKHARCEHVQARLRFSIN
# Chain of Adenosine receptor A2a (Homo sapiens) (P29274 whole entry): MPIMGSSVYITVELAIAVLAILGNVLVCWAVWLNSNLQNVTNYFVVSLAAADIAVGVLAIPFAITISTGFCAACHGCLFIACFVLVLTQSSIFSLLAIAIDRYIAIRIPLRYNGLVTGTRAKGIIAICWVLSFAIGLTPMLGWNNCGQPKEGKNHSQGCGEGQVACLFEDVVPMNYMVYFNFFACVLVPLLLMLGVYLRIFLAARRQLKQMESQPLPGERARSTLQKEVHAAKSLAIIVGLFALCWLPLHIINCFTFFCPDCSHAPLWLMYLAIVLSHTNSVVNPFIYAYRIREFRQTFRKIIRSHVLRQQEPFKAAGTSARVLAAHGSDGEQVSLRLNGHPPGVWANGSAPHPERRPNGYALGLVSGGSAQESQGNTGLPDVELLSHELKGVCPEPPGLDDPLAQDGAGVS
# Chain of Sodium-dependent serotonin transporter (Homo sapiens) (P31645 whole entry, looked up): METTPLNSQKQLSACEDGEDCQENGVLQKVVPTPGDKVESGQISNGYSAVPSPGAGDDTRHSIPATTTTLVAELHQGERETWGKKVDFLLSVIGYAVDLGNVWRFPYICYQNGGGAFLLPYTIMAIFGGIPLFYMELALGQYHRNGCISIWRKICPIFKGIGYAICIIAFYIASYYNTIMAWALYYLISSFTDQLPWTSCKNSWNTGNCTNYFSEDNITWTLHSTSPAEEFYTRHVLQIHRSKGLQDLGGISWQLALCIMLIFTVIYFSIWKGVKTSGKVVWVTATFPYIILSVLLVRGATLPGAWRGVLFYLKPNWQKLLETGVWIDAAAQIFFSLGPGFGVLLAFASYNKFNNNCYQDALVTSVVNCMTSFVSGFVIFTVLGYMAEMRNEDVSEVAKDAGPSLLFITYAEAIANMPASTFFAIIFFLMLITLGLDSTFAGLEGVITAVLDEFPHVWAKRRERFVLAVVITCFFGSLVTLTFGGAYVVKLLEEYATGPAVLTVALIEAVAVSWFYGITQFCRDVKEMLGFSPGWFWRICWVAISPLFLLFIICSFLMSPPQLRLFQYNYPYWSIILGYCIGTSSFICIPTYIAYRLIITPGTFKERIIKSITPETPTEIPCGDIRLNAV
# Chain of P2X purinoceptor 3 (Homo sapiens) (P56373 whole entry): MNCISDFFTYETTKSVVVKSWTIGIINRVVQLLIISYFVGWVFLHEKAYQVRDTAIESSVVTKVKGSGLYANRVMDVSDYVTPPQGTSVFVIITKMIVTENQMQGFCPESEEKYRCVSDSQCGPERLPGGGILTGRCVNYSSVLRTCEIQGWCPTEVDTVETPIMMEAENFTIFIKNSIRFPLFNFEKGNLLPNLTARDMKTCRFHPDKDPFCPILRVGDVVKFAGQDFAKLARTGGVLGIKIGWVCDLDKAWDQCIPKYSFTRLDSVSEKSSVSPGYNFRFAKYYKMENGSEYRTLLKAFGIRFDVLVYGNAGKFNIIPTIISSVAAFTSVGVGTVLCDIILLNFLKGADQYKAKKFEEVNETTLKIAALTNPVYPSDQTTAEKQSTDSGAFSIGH
structure (smiles),measurement,setting,value
C=C1C(=O)O[C@@H]2C[C@@]3(C)CC[C@@H](OC(=O)c4cnc(Cl)cc4Cl)C(=C)[C@@H]3C[C@H]12,Activity,[1],< 50%
same,inhibition,[2],< 50%
same,inhibition,[3],< 50%
same,Activity,[4],< 50%
same,inhibition,[5],< 50%
same,concentration at 2 h,[6],1.97 ng/mL
same,Activity,Mus musculus [7],Active
same,half-life,[8],6.83 h
same,IC50,[9],10.6 µM
same,inhibition,[10],Dose-Dependent Effect
same,Activity,Mus musculus [11],Active
same,Activity,Mus musculus [12],Active
same,inhibition,[13],< 50%
same,Activity,THP-1 [14],Active
same,half-life,[15],3.04 h
same,Activity,[16],Toxic
same,Activity,THP-1 [17],Active
same,Activity,Mus musculus [18],Active
same,AUC(0-t) at 24 h,[19],16.8 ng·h/mL
same,concentration at 8 h,[20],1.52 ng/mL
same,inhibition,Homo sapiens,< 50%
same,half-life,[21],1.09 h
same,inhibition,[22],inactive
same,concentration at 24 h,[23],81.3 ng/g
same,inhibition,HEK293T,Active
same,Activity,[24],< 50%
same,IC50,Cytochrome P450 1A2,> 100 µM
same,inhibition,[25],< 50%
same,inhibition,[26],Dose-Dependent Effect
same,inhibition,BMDM,Active
same,concentration at 24 h,[27],1.65 ng/mL
same,Activity,[28],< 50%
same,Activity,[29],< 50%
same,Activity,[30],< 50%
same,Activity,[31],< 50%
